Where two headings read alike, the source gives them in different places.
Experiments:
adenylyl cyclase = assay: Adenylyl cyclase activity assay, membrane fractions of adult brain tissues; type: biochemical, Drosophila; settings: GTPγS 20 μM
Description: The adenylyl cyclase activity assay described in Livingstone, M. S., Proc. Natl. Acad. Sci. USA, 82:5992-5996 (1985)) was modified as follows. The membrane fraction was extracted from either male heads with the cuticle removed to leave essentially brain tissue, or from 10 male abdomens. Twenty (20) dissected brains in 850 μl lysis buffer were homogenized, and the membrane fraction was extracted by centrifugation at 178,000 g for 10 minutes. GTPγS (final concentration, 20 μM) was added to stimulate G-protein activated adenylyl cyclase activity immediately after homogenization but before centrifugation. When assaying the basal level of adenylyl cyclase activity, GTPγS was not added. These modifications seemed to amplify the NF1 effect. Calcium concentrations were calculated according to MaxChelator v1.31 (Bers, D. M. et al., Methods. Cell. Biol., 40:3-29 (1994)). […] Biochemical assays provide direct evidence to support the electrophysiological data. Previous experiments have shown that Rut-AC expressed in a cell line can be stimulated not only by Ca^2+/calmodulin, but also by reagents that stimulate G-proteins, including GTPγS and AIF4^- (see Levin, L. R. et al., Cell, 68:479-489 (1992)). First, AC activity in membrane fractions of adult brain tissues was examined. […] Thus, GTPγS-stimulated AC activity consists of two components: one that is NF1-dependent and one that is NF1-independent.

[1] = system: K^+ currents of body-wall muscle fibers; assay: Two-microelectrode voltage-clamp recording of PACAP38-induced responses, larval body-wall neuromuscular preparation; set-up: species or system Drosophila
Description: PACAP38-induced responses were recorded by the two-microelectrode voltage-clamp method from body-wall muscle fibers of larvae at the third instar (Zhong, Y., Nature, 375:588-592 (1995); Arimura, A. Regulatory Peptides, 37:287-303 (1992); Spengler, D. et al., Nature, 365:170-175 (1993); Jan, L. Y. et al., J. Physiol., 262:189-214 (1976); Wu, C.-F. et al., Science, 220:1076-1078 (1983); Stewart, B. A. et al., J. Comp. Physiol., 175:179-191 (1994)). Electrophysiological recording: The larval body-wall neuromuscular preparation has been described (Zhong, Y. et al., Neuron, 14:527-536 (1995); Zhong, Y., Nature, 375:588-592 (1995); Jan, L. Y. et al., J. Physiol., 262:189-214 (1976); Wu, C.-F. et al., Science, 220:1076-1078 (1983); Stewart, B. A. et al., J Comp Physiol., 175:179-191 (1994)). The setup, saline, recording conditions and voltage paradigms were as described (Zhong, Y. et al., Neuron, 14:527-536 (1995); Zhong, Y., Nature, 375:588-592 (1995)). For recording the PACAP38-induced synaptic current, the membrane potential was clamped at −80 mV. For recording K^+ currents, command voltages were stepped from the holding potential of −80 to −50 and +20 mV, respectively. […] PACAP38 was applied by pressure ejection through a glass electrode positioned near the voltage-clamped muscle membrane. Forskolin and cAMP analogs were applied to the solution bathing the preparation.

[2] = system: K^+ currents of body-wall muscle fibers; settings: cited from earlier work

Nc1nc2c(ncn2[C@@H]2O[C@H](COP(=O)(O)OP(=O)(O)OP(O)(O)=S)[C@@H](O)[C@H]2O)c(=O)[nH]1 [GTPγS]
GTPγS stimulated AC activity compared with control (K33) (adenylyl cyclase; NF1^P1 and NF1^P2 mutant membranes): markedly reduced | GTPγS-stimulated activity compared with the basal level (adenylyl cyclase; NF1 mutant membranes): significant GTPγS-stimulated activity occurred above the basal level

CCCC(=O)Nc1ncnc2c1ncn2[C@@H]1O[C@@H]2COP(=O)(O)O[C@H]2[C@H]1OC(=O)CCC [dibutyryl cAMP]
effect of cAMP analog on the PACAP38 response ([1]; NF1 mutants (NF1^P2 homozygotes, NF1^P1/NF1^P2 larvae)): restore the normal response to PACAP38 | effect of cAMP analog on the PACAP38 response ([1]; wild-type larvae): appeared not to disrupt the PACAP38 response | PACAP38-like enhancement of K^+ currents by cAMP analog alone ([2]; larval neuromuscular preparation, no PACAP38): insufficient

PACAP38
PACAP38-induced enhancement of K^+ currents ([1]; Gap1 null mutants rI^533B1 and rI^533PB): normal enhancement | PACAP38-induced enhancement of K^+ currents ([1]; NF1^P1 and NF1^P2 mutant larvae): abolished | PACAP38-induced inward current ([1]; NF1^P1 and NF1^P2 mutant larvae, membrane potential clamped at -80 mV): remained mostly intact | PACAP38-induced enhancement of K^+ currents ([2]; wild-type larvae, perfusion to the neuromuscular junction): 100 fold

Source: patent US6365126B1, “Learning and short term memory defects with Neurofibromatosis 1 (NF1) expression” (Cold Spring Harbor Laboratory, priority 1997, dated 2002)
